# System: DMS-114 complex spheroids with HUVEC/MSC, growth % test/control
# Test: Anticancer human tumor DMS-114 cell line growth inhibition [AhR];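 further: spheroids exposed to agents for 7 days before readout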;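 on viability, T/C: 100% = DMSO vehicle control wells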
# Conditions: for IC50: curve of first compound; for viability, T/C: stronger effect = lower value
# Outline: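 Spheroids combined tumor cells with HUVEC endothelial cells and human MSCs as stroma. AhR antagonists were paired with standard or investigational drugs, each dosed in half-log steps down from near clinical Cmax, or from 10 microM where Cmax was unknown.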
# [1] = second compound 0.1 µM, first compound 0.0316 µM
# [2] = second compound 0.1 µM, first compound 0.1 µM
# [3] = second compound 0.1 µM, first compound 0.316 µM
# [4] = second compound 0.1 µM, first compound 1 µM
# [5] = second compound 0.1 µM, first compound 3.16 µM
# [6] = second compound 0.1 µM, first compound 10 µM
# [7] = second compound 0.316 µM, first compound 0.0316 µM
# [8] = second compound 0.316 µM, first compound 0.1 µM
# [9] = second compound 0.316 µM, first compound 0.316 µM
# [10] = second compound 0.316 µM, first compound 1 µM
# [11] = second compound 0.316 µM, first compound 3.16 µM
# [12] = second compound 0.316 µM, first compound 10 µM
# [13] = second compound 1 µM, first compound 0.0316 µM
# [14] = second compound 1 µM, first compound 0.1 µM
# [15] = second compound 1 µM, first compound 0.316 µM
# [16] = second compound 1 µM, first compound 1 µM
# [17] = second compound 1 µM, first compound 3.16 µM
# [18] = second compound 1 µM, first compound 10 µM
# [19] = second compound 3.16 µM, first compound 0.0316 µM
# [20] = second compound 3.16 µM, first compound 0.1 µM
# [21] = second compound 3.16 µM, first compound 0.316 µM
# [22] = second compound 3.16 µM, first compound 1 µM
# [23] = second compound 3.16 µM, first compound 3.16 µM
# [24] = second compound 3.16 µM, first compound 10 µM
# [25] = second compound 10 µM, first compound 0.0316 µM
# [26] = second compound 10 µM, first compound 0.1 µM
# [27] = second compound 10 µM, first compound 0.316 µM
# [28] = second compound 10 µM, first compound 1 µM
# [29] = second compound 10 µM, first compound 3.16 µM
# [30] = second compound 10 µM, first compound 10 µM
Compound,IC50 (second compound 0.1 µM) [nM],IC50 (second compound 0.316 µM) [nM],IC50 (second compound 1 µM) [nM],IC50 (second compound 3.16 µM) [nM],IC50 (second compound 10 µM) [nM],"viability, T/C [1] [%]","viability, T/C [2] [%]","viability, T/C [3] [%]","viability, T/C [4] [%]","viability, T/C [5] [%]","viability, T/C [6] [%]","viability, T/C [7] [%]","viability, T/C [8] [%]","viability, T/C [9] [%]","viability, T/C [13] [%]","viability, T/C [14] [%]","viability, T/C [19] [%]","viability, T/C [20] [%]","viability, T/C [25] [%]","viability, T/C [26] [%]",further results
CC1(C)CCC(CN2CCN(c3ccc(C(=O)NS(=O)(=O)c4ccc(NCC5CCOCC5)c([N+](=O)[O-])c4)c(Oc4cnc5[nH]ccc5c4)c3)CC2)=C(c2ccc(Cl)cc2)C1 + CC(CO)NC(=O)c1cc(-c2ccc(Cl)cc2)nn(-c2cnn(C)c2)c1=O,> 10000,> 10000,> 10000,> 10000,> 10000,99.3,101,107,93.1,104,67.2,95.7,114,104,93.1,92.2,101,101,104,93,"viability, T/C [10]: 87.6%; viability, T/C [11]: 92.3%; viability, T/C [12]: 73.4%; viability, T/C [15]: 94%; viability, T/C [16]: 119%; viability, T/C [17]: 102%; viability, T/C [18]: 68.2%; viability, T/C [21]: 91.3%; viability, T/C [22]: 95.8%; viability, T/C [23]: 93%; viability, T/C [24]: 71.3%; viability, T/C [27]: 95.6%; viability, T/C [28]: 106%; viability, T/C [29]: 104%; viability, T/C [30]: 64.7%"
Cn1ncnc1C1c2n[nH]c(=O)c3cc(F)cc(c23)NC1c1ccc(F)cc1 (stereo not given) + CC(CO)NC(=O)c1cc(-c2ccc(Cl)cc2)nn(-c2cnn(C)c2)c1=O,> 100,> 100,> 100,> 100,> 100,97.2,82,,,,,82,84.1,,84,101,94.8,85.7,78.1,72.2,"viability, T/C (second compound 0.1 µM, first compound 0.000316 µM): 103%; viability, T/C (second compound 0.1 µM, first compound 0.001 µM): 95%; viability, T/C (second compound 0.1 µM, first compound 0.00316 µM): 101%; viability, T/C (second compound 0.1 µM, first compound 0.01 µM): 102%; viability, T/C (second compound 0.316 µM, first compound 0.000316 µM): 105%; viability, T/C (second compound 0.316 µM, first compound 0.001 µM): 95.5%; viability, T/C (second compound 0.316 µM, first compound 0.00316 µM): 103%; viability, T/C (second compound 0.316 µM, first compound 0.01 µM): 84.7%; viability, T/C (second compound 1 µM, first compound 0.000316 µM): 103%; viability, T/C (second compound 1 µM, first compound 0.001 µM): 116%; viability, T/C (second compound 1 µM, first compound 0.00316 µM): 109%; viability, T/C (second compound 1 µM, first compound 0.01 µM): 92.1%; viability, T/C (second compound 3.16 µM, first compound 0.000316 µM): 107%; viability, T/C (second compound 3.16 µM, first compound 0.001 µM): 105%; viability, T/C (second compound 3.16 µM, first compound 0.00316 µM): 109%; viability, T/C (second compound 3.16 µM, first compound 0.01 µM): 96.4%; viability, T/C (second compound 10 µM, first compound 0.000316 µM): 94.3%; viability, T/C (second compound 10 µM, first compound 0.001 µM): 106%; viability, T/C (second compound 10 µM, first compound 0.00316 µM): 104%; viability, T/C (second compound 10 µM, first compound 0.01 µM): 98.8%"
NS(=O)(=O)OCC1CC(n2ccc3c(NC4CCc5ccccc54)ncnc32)CC1O (stereo not given) + CC(CO)NC(=O)c1cc(-c2ccc(Cl)cc2)nn(-c2cnn(C)c2)c1=O,< 31.6,38.1,< 31.6,33.3,< 31.6,39.8,35.6,16,11,7.57,6.46,53.4,32.2,17.7,47.9,35.5,50.6,34.8,49.4,40,"viability, T/C [10]: 9.64%; viability, T/C [11]: 8.09%; viability, T/C [12]: 6.7%; viability, T/C [15]: 16.3%; viability, T/C [16]: 12.2%; viability, T/C [17]: 7.56%; viability, T/C [18]: 7.46%; viability, T/C [21]: 17.8%; viability, T/C [22]: 11.7%; viability, T/C [23]: 8.81%; viability, T/C [24]: 6.82%; viability, T/C [27]: 18.3%; viability, T/C [28]: 10.8%; viability, T/C [29]: 8.39%; viability, T/C [30]: 8.61%"

# From PubChem BioAssay AID1919008 (Molecular Pharmacology Branch, DTP, NCI, 2023)
